This passage reports IC50 results from US11712438B2, “Phenyl derivatives as PGE2 receptor modulators” (IDORSIA PHARMACEUTICALS LTD, priority 2017, dated 2023).

Targets include EP2 (Homo sapiens, UniProt P43116); PTRGER4 (EP4) (Homo sapiens, UniProt P35408); EP4 (Homo sapiens, UniProt P35408); PTGER2 (EP2) (Homo sapiens, UniProt P43116).
Assay in all cases: cell-based

Chain of EP2 (P43116 whole entry): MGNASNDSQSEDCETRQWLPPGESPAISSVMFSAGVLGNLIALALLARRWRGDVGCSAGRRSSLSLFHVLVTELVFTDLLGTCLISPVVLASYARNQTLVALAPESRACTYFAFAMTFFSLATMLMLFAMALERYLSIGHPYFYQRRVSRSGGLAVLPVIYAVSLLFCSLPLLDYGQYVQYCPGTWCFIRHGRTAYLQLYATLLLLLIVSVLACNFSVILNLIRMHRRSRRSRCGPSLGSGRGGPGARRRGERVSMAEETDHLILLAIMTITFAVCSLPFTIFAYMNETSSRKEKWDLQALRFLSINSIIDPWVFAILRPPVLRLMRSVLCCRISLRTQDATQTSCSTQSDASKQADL
Chain of PTGER2 (EP2) (P43116 whole entry): as above
Chain of PTRGER4 (EP4) (P35408 whole entry): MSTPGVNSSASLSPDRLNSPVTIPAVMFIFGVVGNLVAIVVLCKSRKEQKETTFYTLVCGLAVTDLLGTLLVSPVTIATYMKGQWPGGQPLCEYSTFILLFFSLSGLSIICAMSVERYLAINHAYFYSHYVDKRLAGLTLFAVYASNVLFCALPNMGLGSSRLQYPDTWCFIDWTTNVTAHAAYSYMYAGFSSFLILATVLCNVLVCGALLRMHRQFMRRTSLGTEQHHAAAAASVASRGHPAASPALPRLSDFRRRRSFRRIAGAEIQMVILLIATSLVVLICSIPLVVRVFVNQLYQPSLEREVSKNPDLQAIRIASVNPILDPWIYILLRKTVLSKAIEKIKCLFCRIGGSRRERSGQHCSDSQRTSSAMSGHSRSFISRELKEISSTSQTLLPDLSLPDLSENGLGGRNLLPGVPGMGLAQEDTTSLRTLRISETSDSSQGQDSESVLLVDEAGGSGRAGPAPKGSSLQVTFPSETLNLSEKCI
Chain of EP4 (P35408 whole entry): as above
Description for PTGER2 (EP2): The assay is using the PathHunter™ HEK 293 PTGER2 and PTGER4 b-arrestin cell lines from DiscoverX. The system is based on the Enzyme Fragment Complementation Technology. Two complementing fragments of the b-galactosidase enzyme are expressed within stably transfected cells. The larger portion of b-gal, termed EA for Enzyme Acceptor, is fused to the C-terminus of b-arrestin 2. The smaller fragment, termed ProLink™ tag, is fused to PTGER2 (EP2) or PTRGER4 (EP4) at the C-terminus. Upon activation, b-arrestin is recruited which forces the interaction of ProLink and EA, allowing complementation of the two fragments of b-gal and the formation of a functional enzyme which is capable of hydrolysing the substrate and generating a chemiluminescent signal.
The HEK 293 PTGER2 b-arrestin cells (DiscoverX 93-021-4C1) are detached from culture dishes with a cell dissociation buffer (Invitrogen, 13151-014), and collected in growing medium (GM: DMEM+Glutamax-I (Invitrogen 32430)/10% FCS, 1% Penicilin/streptomycin). 5000 cells per well of a 384 well plate (white with white bottom Greiner 781080) are seeded in 20 ul per well of GM. Plate is incubated at 37° C., 5% CO2 for 24 hours.
Stock solutions of test compounds are made at a concentration of 10 mM in DMSO, and serially diluted in DMSO to concentrations required for inhibition dose response curves (tested concentration range 10 μM-2 nM or 1 μM-0.2 nM).
PGE2 (Cayman 14010, stock solution: 10 mM in DMSO) is used as agonist at 5 μM final concentration, corresponding to EC80.
Five microliters of diluted compounds are transferred into the assay plate. Plate is pre-incubated 15 minutes at 37° C. Then five microliters of PGE2 (final conc. 5 μM) are transferred into the assay plate. Plate is incubated 120 minutes at 37° C.
Twelve μl of reagent are transferred to the assay plate and incubate for 1 hour at room temperature in the dark. Luminescence counts are read on a BMG Fluostar Optima reader according to manufacturer's instructions.
For each compound concentration calculate of the percentage of activity compared to DMSO control value as average±STDEV. (each concentration is measured in duplicate)
When compounds were measured multiple times, mean values are given.

Consider `CCOc1cc(-c2cc(NCCc3c(F)cc(Br)cc3F)ncn2)ccc1-c1nnn[nH]1` [Example 23, [2-(4-Bromo-2,6-difluoro-phenyl)-ethyl]-{6-[3-ethoxy-4-(1H-tetrazol-5yl)-phenyl]-pyrimidin-4-yl}-amine], for which the IC50 (in general, the concentration that gives 50% inhibition) was 28 nM on EP2, 60 nM at PTRGER4 (EP4), 61 nM against EP4 and 73 nM against PTGER2 (EP2).

As for `CCOc1cc(-c2cc(NCCc3c(F)cc(Br)cc3F)ncn2)ccc1-c1noc(=O)[nH]1` [Example 234, 3-(4-{6-[2-(4-Bromo-2,6-difluoro-phenyl)-ethylamino]-pyrimidin-4-yl}-2-ethoxy-phenyl)-[1,2,4]oxadiazol-5(4H)-one], the IC50 on EP2 amounted to 93 nM; against PTRGER4 (EP4) it was 49 nM; against EP4, 23 nM; against PTGER2 (EP2), 77 nM.

Consider `Cc1ccc(CCNc2cc(-c3cc(F)c(C(=O)O)s3)ncn2)cc1` [Example 1, 3-Fluoro-5-[6-(2-p-tolyl-ethylamino)-pyrimidin-4-yl]thiophene-2-carboxylic acid], for which the IC50 on EP2 was 86 nM; against PTRGER4 (EP4), 402 nM; at EP4, 65 nM; at PTGER2 (EP2) it was 240 nM.

Turning to `CCOc1cc(-c2cc(NCCc3c(F)cc(Br)cc3F)ncn2)sc1/C=C/C(=O)O` [Example 47, (E)-3-(5-{6-[2-(4-Bromo-2,6-difluoro-phenyl)-ethylamino]-pyrimidin-4-yl}-3-ethoxy-thiophen-2yl)-acrylic acid], the concentration for half-maximal inhibition (IC50) at EP2 amounted to 129 nM; against PTRGER4 (EP4) it was 11 nM; against EP4, 85 nM; against PTGER2 (EP2), 50 nM.

For `CCOc1cc(-c2cc(NCCc3ccc(Br)cc3)ncn2)ccc1-c1noc(=O)[nH]1` [Example 15, 3-(4-{6-[2-(4-Bromo-phenyl)-ethylamino]-pyrimidin-4-yl}-2-ethoxy-phenyl)-[1,2,4]oxadiazol-5(4H)-one], the IC50 worked out at 198 nM on EP2, 56 nM at PTRGER4 (EP4), 42 nM against EP4 and 368 nM on PTGER2 (EP2).

For `CCOc1cc(-c2cc(NCCc3c(F)cc(Br)cc3F)ncn2)sc1C(=O)NS(N)(=O)=O` [Example 155, 5-(6-((4-Bromo-2,6-difluorophenethyl)amino)pyrimidin-4-yl)-3-ethoxy-N-sulfamoylthiophene-2-carboxamide], the IC50 against EP2 stood at 20 nM; at PTRGER4 (EP4) it was 35 nM; against EP4, 62 nM; at PTGER2 (EP2), 12 nM.

For `CCOc1cc(-c2cc(NCCc3c(F)cc(Br)cc3F)ncn2)sc1-c1nnc(O)o1` [Example 152, 5-(5-{6-[2-(4-bromo-2,6-difluoro-phenyl)-ethylamino]-pyrimidin-4-yl}-3-ethoxy-thiophen-2-yl)-[1,3,4]-oxadiazol-2-ol], the 50% inhibitory concentration (IC50) on EP2 was found to be 9 nM; against PTRGER4 (EP4), 5 nM; at EP4, 30 nM; against PTGER2 (EP2), 12 nM.

For the molecule `CCOc1cc(-c2cc(NCCc3ccc(Br)cc3)nc(C)n2)sc1-c1noc(=O)[nH]1` [Example 157, 3-(5-{6-[2-(4-Bromo-phenyl)-ethylamino]-2-methyl-pyrimidin-4-yl}-3-ethoxy-thiophen-2-yl)-[1,2,4]oxadiazol-5(4H)-one], the IC50 against EP2 was determined as 99 nM; at PTRGER4 (EP4) it was 57 nM; at EP4, 34 nM; at PTGER2 (EP2) it was 64 nM.

On to `CCOc1cc(-c2cc(NCCc3c(F)cc(Br)cc3F)ncn2)ccc1OCCC(=O)O` [Example 45, 3-(4-{6-[2-(4-Bromo-2,6-difluoro-phenyl)-ethylamino]-pyrimidin-4-yl}-2-ethoxy-phenoxy)-propionic acid], for which the IC50 against EP2 was 184 nM; at PTRGER4 (EP4), 50 nM; at EP4, 165 nM; against PTGER2 (EP2), 81 nM.

Take `CCOc1cc(-c2cc(NCCc3ccc(Br)cc3)ncn2)ccc1C(=O)O` [Example 11, 4-{6-[2-(4-Bromo-phenyl)-ethylamino]-pyrimidin-4-yl}-2-ethoxy-benzoic acid]: the IC50 on EP2 is 311 nM; against PTRGER4 (EP4), 1090 nM; at EP4 it was 440 nM; at PTGER2 (EP2), 358 nM.

As for `Cc1ccc(CCNc2cc(-c3cc(C(F)(F)F)c(C(=O)O)s3)ncn2)c(C)c1` [Example 64, 5-{6-[2-(2,4-Dimethyl-phenyl)-ethylamino]-pyrimidin-4-yl}-3-trifluoromethyl-thiophene-2-carboxylic acid], the concentration for half-maximal inhibition (IC50) turned out to be 244 nM at EP2, 205 nM on PTRGER4 (EP4), 38 nM on EP4 and 316 nM at PTGER2 (EP2).

On to `O=C(O)c1ccc(-c2cc(NCCc3c(F)cc(Br)cc3F)ncn2)cc1OC1CCC1` [Example 42, 4-{6-[2-(4-Bromo-2,6-difluoro-phenyl)-ethylamino]-pyrimidin-4-yl}-2-cyclobutoxy-benzoic acid], for which the half-maximal inhibitory concentration (IC50) against EP2 came out at 50 nM; on PTRGER4 (EP4), 241 nM; at EP4 it was 297 nM; against PTGER2 (EP2) it was 59 nM.

Take `O=C(O)c1ccc(-c2cc(NCCc3c(F)cc(Br)cc3F)ncn2)cc1OC1CC1` [Example 259, 4-{6-[2-(4-Bromo-2,6-difluoro-phenyl)-ethylamino]-pyrimidin-4-yl}-2-cyclopropoxy-benzoic acid]: the half-inhibitory concentration (IC50) at EP2 was found to be 45 nM; on PTRGER4 (EP4), 351 nM; on EP4, 76 nM; on PTGER2 (EP2), 46 nM.

Regarding `CCOc1cc(F)ccc1CCNc1cc(-c2cc(OCC)c(-c3noc(=O)[nH]3)s2)ncn1` [Example 95, 3-(3-Ethoxy-5-{6-[2-(2-ethoxy-4-fluoro-phenyl)-ethylamino]-pyrimidin-4-yl}-thiophen-2-yl)-[1,2,4]oxadiazol-5(4H)-one], the half-maximal inhibitory concentration (IC50) turned out to be 15 nM at EP2, 59 nM against PTRGER4 (EP4), 166 nM against EP4 and 30 nM on PTGER2 (EP2).

As to `CCOc1cc(-c2cc(NCCc3cc(C)c(Br)cc3F)ncn2)sc1-c1noc(=O)[nH]1` [Example 114, 3-(5-{6-[2-(4-Bromo-2-fluoro-5-methyl-phenyl)-ethylamino]-pyrimidin-4-yl}-3-ethoxy-thiophen-2yl)-[1,2,4]oxadiazol-5(4H)-one], the IC50 at EP2 was determined as 27 nM; at PTRGER4 (EP4), 3 nM; at EP4, 8 nM; against PTGER2 (EP2) it was 15 nM.

In the case of `CCOc1c(C(N)=O)sc(-c2cc(NCCc3c(F)cc(Br)cc3F)ncn2)c1Cl` [Example 293, 5-{6-[2-(4-Bromo-2,6-difluoro-phenyl)-ethylamino]-pyrimidin-4-yl}-4-chloro-3-ethoxy-thiophene-2-carboxylic acid amide], the IC50 at EP2 came to 900 nM; at PTRGER4 (EP4), 41 nM; at EP4, 326 nM; against PTGER2 (EP2), 138 nM.

As to `CCOc1cc(-c2cc(NCCc3cc(C)c(C)cc3OC)ncn2)ccc1C(=O)O` [Example 7, 2-Ethoxy-4-{6-[2-(2-methoxy-4,5-dimethyl-phenyl)-ethylamino]-pyrimidin-4-yl}-benzoic acid], the IC50 against EP2 was 205 nM; on PTRGER4 (EP4), 759 nM; on EP4, 140 nM; against PTGER2 (EP2), 441 nM.

Take `CCOc1cc(-c2cc(NCCc3cc(F)c(Br)cc3F)ncn2)sc1-c1noc(=O)[nH]1` [Example 107, 3-(5-{6-[2-(4-Bromo-2,5-difluoro-phenyl)-ethylamino]-pyrimidin-4-yl}-3-ethoxy-thiophen-2yl)-[1,2,4]oxadiazol-5(4H)-one]: the concentration for half-maximal inhibition (IC50) at EP2 was determined as 11 nM; at PTRGER4 (EP4), 2 nM; on EP4, 7 nM; against PTGER2 (EP2) it was 10 nM.

With `CC(C)COc1cc(-c2cc(NCCc3c(F)cc(Br)cc3F)ncn2)ccc1C(=O)O` [Example 237, 4-{6-[2-(4-Bromo-2,6-difluoro-phenyl)-ethylamino]-pyrimidin-4-yl}-2-isobutoxy-benzoic acid], the IC50 turned out to be 128 nM against EP2, 419 nM against PTRGER4 (EP4), 668 nM on EP4 and 72 nM at PTGER2 (EP2).

Consider `CCOc1cc(-c2cc(NCCc3c(F)cc(F)cc3F)ncn2)sc1-c1noc(=O)[nH]1` [Example 101, 3-(3-Ethoxy-5-{6-[2-(2,4,6-trifluoro-phenyl)-ethylamino]-pyrimidin-4-yl}-thiophen-2-yl)-[1,2,4]oxadiazol-5(4H)-one], for which the concentration for half-maximal inhibition (IC50) against EP2 amounted to 62 nM; at PTRGER4 (EP4), 103 nM; against EP4 it was 82 nM; against PTGER2 (EP2) it was 44 nM.

As for `CCc1cc(-c2cc(NCCc3c(F)cc(Br)cc3F)ncn2)ccc1C(=O)OC` [Example 245, 4-{6-[2-(4-Bromo-2,6-difluoro-phenyl)-ethylamino]-pyrimidin-4-yl}-2-ethyl-benzoic acid methyl ester], the IC50 at EP2 was 4630 nM; at PTRGER4 (EP4), 307 nM; at EP4 it was 6720 nM; at PTGER2 (EP2) it was 392 nM.

As for `CCc1cc(-c2cc(NCCc3c(F)cc(Br)cc3F)ncn2)sc1C(N)=O` [Example 281, 5-{6-[2-(4-Bromo-2,6-difluoro-phenyl)-ethylamino]-pyrimidin-4-yl}-3-ethyl-thiophene-2-carboxylic acid amide], the concentration for half-maximal inhibition (IC50) at EP2 was 47 nM; at PTRGER4 (EP4), 37 nM; against EP4, 81 nM; at PTGER2 (EP2) it was 56 nM.

`CCOc1cc(-c2cc(NCCc3c(F)cc(Br)cc3F)ncn2)ccc1NC=O` [Example 240, N-(4-{6-[2-(4-Bromo-2,6-difluoro-phenyl)-ethylamino]-pyrimidin-4-yl}-2-ethoxy-phenyl)-formamide]: the IC50 on EP2 amounted to 511 nM; against PTRGER4 (EP4), 72 nM; against EP4, 405 nM; against PTGER2 (EP2), 127 nM.

For the molecule `CCOc1cc(-c2cc(NCCc3cc(OC)ccc3OC)ncn2)sc1C(=O)O` [Example 72, 5-{6-[2-(2,5-Dimethoxy-phenyl)-ethylamino]-pyrimidin-4-yl}-3-ethoxy-thiophene-2-carboxylic acid], the IC50 against EP2 is 40 nM; against PTRGER4 (EP4) it was 104 nM; on EP4, 42 nM; against PTGER2 (EP2) it was 77 nM.
